Test results published in PubChem BioAssay AID1645866 (Buhrlage Lab, Dana-Farber Cancer Institute and Novartis …, 2021).
The source made the active and inactive calls.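 The calls were made as follows: active = in confirmatory dose-response testing, peak deubiquitinase inhibition of 30% or more; inactive = the rest.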

What follows are compounds tested against Ubiquitin carboxyl-terminal hydrolase 28 (Homo sapiens) (UniProt Q96RU2) (assay: Concentration-response biochemical assay confirming initial hits as inhibitors of ubiquitin-specific protease 28 (AID 1645866)). Conditions: purified USP28, ubiquitin-rhodamine fluorescence, 30 min.
Ubiquitin carboxyl-terminal hydrolase 28 (Homo sapiens), sequence (Q96RU2 whole entry, looked up): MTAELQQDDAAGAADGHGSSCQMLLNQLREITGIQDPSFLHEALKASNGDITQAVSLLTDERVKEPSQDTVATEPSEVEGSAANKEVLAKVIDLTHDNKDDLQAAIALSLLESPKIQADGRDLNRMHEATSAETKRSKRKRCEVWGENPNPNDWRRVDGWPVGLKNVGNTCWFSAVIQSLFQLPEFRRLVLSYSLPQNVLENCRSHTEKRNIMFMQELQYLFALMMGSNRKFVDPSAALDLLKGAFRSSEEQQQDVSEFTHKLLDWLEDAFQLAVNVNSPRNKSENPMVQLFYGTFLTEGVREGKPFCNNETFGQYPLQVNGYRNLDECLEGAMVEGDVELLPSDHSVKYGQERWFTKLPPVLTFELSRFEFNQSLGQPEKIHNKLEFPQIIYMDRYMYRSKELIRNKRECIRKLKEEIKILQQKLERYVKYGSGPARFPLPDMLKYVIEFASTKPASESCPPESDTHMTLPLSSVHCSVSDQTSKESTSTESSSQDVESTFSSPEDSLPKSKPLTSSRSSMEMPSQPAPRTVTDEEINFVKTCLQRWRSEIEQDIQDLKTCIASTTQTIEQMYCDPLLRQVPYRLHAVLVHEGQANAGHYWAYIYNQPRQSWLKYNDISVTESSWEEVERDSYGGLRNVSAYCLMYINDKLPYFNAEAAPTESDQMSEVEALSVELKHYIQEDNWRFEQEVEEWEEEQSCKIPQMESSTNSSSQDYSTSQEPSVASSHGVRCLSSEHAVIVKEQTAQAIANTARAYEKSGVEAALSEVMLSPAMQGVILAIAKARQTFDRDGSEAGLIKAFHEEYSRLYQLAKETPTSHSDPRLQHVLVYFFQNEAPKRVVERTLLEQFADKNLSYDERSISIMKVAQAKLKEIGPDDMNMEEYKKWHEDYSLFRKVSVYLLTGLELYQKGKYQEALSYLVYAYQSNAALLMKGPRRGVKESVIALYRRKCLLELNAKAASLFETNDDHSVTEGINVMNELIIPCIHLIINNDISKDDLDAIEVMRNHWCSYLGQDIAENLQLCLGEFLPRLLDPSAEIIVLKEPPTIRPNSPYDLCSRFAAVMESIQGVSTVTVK

Point of comparison: `CC(=O)c1ccc(NC(=O)/C(=C/c2ccco2)n2nnnc2-c2ccccc2)cc1`, IC50 40.5 µM. Against it:
- Cc1ccccc1Cn1cc(SCC(=O)Nc2ccc3c(c2)OCCO3)c2ccccc21 — 8.4-fold lower, 4.81 µM
- Cc1cc(=O)c2c(O)oc(O)c3c(O)cc(=O)c1c32 — 1.8-fold lower, 22 µM
- COc1cc(O)c2c(=O)c(-c3ccc(O)cc3)coc2c1 — within 1.5-fold, 36.1 µM
- COC(=O)c1ccc(NC(=O)CSc2nnc(-c3ccc(O)cc3)n2Cc2ccco2)cc1 — within 1.5-fold, 33.9 µM
- Cc1cc(C(F)(F)F)n(-c2ccc(NC(=O)Nc3cccc(C(F)(F)F)c3)cc2)n1 — 8-fold lower, 5.05 µM
- Cc1cccc(OCCn2c(CCNC(=O)C3CCCCC3)nc3ccccc32)c1 — 1.9-fold lower, 21.6 µM
- CCC(C)(C)C1CCC2(CC1)N=C(N)Nc1nc3ccccc3n12 (stereo unspecified) — within 1.5-fold, 35.6 µM
- O=c1c2c(ccn1Cc1cc(F)ccc1F)ccn2Cc1cccnc1 — 5.6-fold lower, 7.21 µM
- CC(OC(=O)CNC(=O)c1ccc(Br)cc1)C(=O)Nc1ccc2c(c1)OCCO2 (stereo unspecified) — 1.6-fold lower, 25.8 µM
- CCn1ccc2c(cc(C(=O)Nc3cccc(OC)c3)n2C)c1=O — 14-fold lower, 2.83 µM
- CN(C(=O)c1cccc2cccnc12)c1nc2c(s1)CCc1occc1-2 — 1.5-fold lower, 26.9 µM
- COc1ccc(C2C(C(=O)Nc3ccccc3OC)=C(C)Nc3nnnn32)cc1Br (stereo unspecified) — 1.7-fold lower, 23.2 µM
- CS(=O)(=O)c1ccc(NC(=O)C2CN(c3nc4c(F)cccc4s3)C2)cc1 — 1.9-fold lower, 21.3 µM
- O=C(CSc1ncnc2c1oc1ccccc12)NC1CCCC1 — 2-fold lower, 20.5 µM
- COc1cccc(NC(=O)C2CCN(C(=O)c3cc(-c4cccnc4)n[nH]3)CC2)c1 — 2-fold lower, 20.3 µM
- O=C(Cn1cc(C(=O)C(F)(F)F)c2ccccc21)N1CCc2ccccc21 — 15-fold lower, 2.68 µM
- Cc1cc(-c2ccnc3c(C#N)cnn23)c(C)s1 — within 1.5-fold, 28.3 µM
- Cn1c(-c2nnc(SCC(=O)Nc3ccccc3F)o2)cc2ccccc21 — 2.3-fold lower, 17.9 µM
- COc1ccc(NC(=O)c2nnc(C(=O)NCCN3CCCCCC3)s2)cc1 — 3.3-fold lower, 12.2 µM
- CC1CCCN(CCCNC(=O)c2ccc(N3CCc4ccccc43)s2)C1 (stereo unspecified) — 2.2-fold lower, 18.5 µM
- Cc1cc(-c2cnc(N(C)C)nc2-c2ccc(CNC(=O)Cc3ccc(F)cc3)cc2)on1 — within 1.5-fold, 28.7 µM
- COc1ccc(-c2cc3nc([C@@H](C)NC(=O)c4ccc5c(c4)OCO5)nn3cn2)cc1 — within 1.5-fold, 35.1 µM
- O=C1N(Cc2ccc(F)cc2)CCN1c1ccc2c(c1)CCC2 — within 1.5-fold, 40.8 µM
- COc1ccc(CCNC(=O)c2cn(-c3ccc(F)cc3)nn2)cc1OC — 1.9-fold lower, 20.8 µM
- Nc1c(-c2nc(-c3ccc4c(c3)OCO4)cs2)nnn1-c1ccccc1 — within 1.5-fold, 30.8 µM
- Cc1ccc(NC(=O)Cc2nnc3cc(-c4nc(C)no4)ccn23)cc1 — 8.1-fold lower, 5.02 µM
- O=C(Cn1cncc(-c2nc(-c3ccccc3)cs2)c1=O)NC1CCCC1 — within 1.5-fold, 36.5 µM
- O=C(CCc1ccc(S(=O)(=O)N2CCOCC2)cc1)Nc1ccc2c(c1)OCCO2 — 3.1-fold lower, 13.1 µM
- O=C(COc1ccc(Cl)cc1)NCc1nnc(SCC(=O)NCc2ccc3c(c2)OCO3)o1 — within 1.5-fold, 28.4 µM
- C[C@@H]1OC2=C(C(=O)c3cccc(O)c3C2=O)[C@H](O)[C@@H]1O — 15-fold lower, 2.79 µM

In the case of `CC1CCc2c(sc3ncnc(NC4CCN(CC(N)=O)CC4)c23)C1` (stereo unspecified), the IC50 is reported as > 50 µM (inactive).
With `CN(C)S(=O)(=O)c1ccc(N2CCCC2)c(C(=O)Nc2ccc(-c3cn4ccsc4n3)cc2)c1` the IC50 was > 50 µM (inactive).
With `COc1ccc(-n2nnc3c(SCC(=O)Nc4cc(C)on4)ncnc32)cc1` the IC50 was > 50 µM (inactive).
For `CO[C@H]1/C=C/OC2(C)Oc3c(C)c(O)c4c(c3C2=O)C2(C=C(NC(=O)/C(C)=C\C=C\[C@H](C)[C@H](O)[C@@H](C)[C@@H](O)[C@@H](C)[C@H](OC(C)=O)C1C)C4=O)OCC(=O)O2` (stereo partly specified), the IC50 was > 50 µM (inactive).
For `O=C(c1ccco1)N1CCCC2(C1)Nc1cccnc1NC2=NC1CCCC1` (stereo unspecified), the IC50 was > 50 µM (inactive).
`Cc1cc(-n2c(C)cc(-c3csc(N)n3)c2C)no1` was tested, and the IC50 was > 50 µM (inactive).
In the case of `FC(F)(F)c1cccc(N2CCN(c3nc4ccccc4n4nnnc34)CC2)c1`, the IC50 is reported as > 50 µM (inactive).
With `CC1CCN(c2nnc(-c3nc(C4CC4)no3)c3ccccc23)CC1` the IC50 was > 50 µM (inactive).
In the case of `CCN1CCN(C(=O)CCCN(c2ccccc2)S(C)(=O)=O)CC1`, the IC50 is reported as > 50 µM (inactive).
For `Cc1ccc(-c2noc(-c3nnc(SCC(=O)NC4CCCC4)n3C)n2)cc1`, the IC50 was “inactive”.
